Measurements taken from paper PMC12154458, “High-Throughput Screens of Repurposing Hub and DOS Chemical Libraries Reveal Compounds with Novel and Potent Inhibitory Activity Against the Essential Non-Neuronal Acetylcholinesterase of Schistosoma mansoni (SmTAChE)” (International Journal of Molecular Sciences, 2025).

Key:
rSmTAChE [1] = biological target: T1, rSmTAChE (Schistosoma mansoni, UniProt A0A3Q0KMM5); assay type: biochemical; conditions: for IC50: read-out: qAC50 (IC50), rSmTAChE;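 as to Inhibition (%) (Average): mostly 20 µM final but a few compounds at 5 or 10 µM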;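 as to Inhibition (%) Replicate A: mostly 20 µM final but a few compounds at 5 or 10 µM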;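 as to Inhibition (%) Replicate B: mostly 20 µM final but a few compounds at 5 or 10 µM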
T1 sequence (A0A3Q0KMM5 27-661 limits assumed): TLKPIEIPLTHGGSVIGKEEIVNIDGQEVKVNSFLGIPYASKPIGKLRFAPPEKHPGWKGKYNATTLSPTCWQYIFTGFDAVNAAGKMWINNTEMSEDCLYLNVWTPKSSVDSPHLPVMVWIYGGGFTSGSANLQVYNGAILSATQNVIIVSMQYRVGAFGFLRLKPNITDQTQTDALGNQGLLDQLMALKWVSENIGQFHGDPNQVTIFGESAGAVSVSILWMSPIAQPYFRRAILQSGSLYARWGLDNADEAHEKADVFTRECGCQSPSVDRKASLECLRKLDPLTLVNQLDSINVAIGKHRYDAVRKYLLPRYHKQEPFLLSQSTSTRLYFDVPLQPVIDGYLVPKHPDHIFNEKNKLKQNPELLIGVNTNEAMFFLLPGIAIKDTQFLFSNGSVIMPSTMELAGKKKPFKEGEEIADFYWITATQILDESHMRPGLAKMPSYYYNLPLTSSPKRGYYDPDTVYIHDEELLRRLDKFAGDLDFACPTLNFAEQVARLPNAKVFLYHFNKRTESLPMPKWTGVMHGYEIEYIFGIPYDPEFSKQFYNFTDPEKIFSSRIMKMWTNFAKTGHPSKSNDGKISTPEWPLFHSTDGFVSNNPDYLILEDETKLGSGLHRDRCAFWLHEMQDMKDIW

[2] = biological target: recombinant human acetylcholinesterase, rHsAChE (Homo sapiens, UniProt P22303); test: biochemical
Chain of recombinant human acetylcholinesterase, rHsAChE (P22303 32-614): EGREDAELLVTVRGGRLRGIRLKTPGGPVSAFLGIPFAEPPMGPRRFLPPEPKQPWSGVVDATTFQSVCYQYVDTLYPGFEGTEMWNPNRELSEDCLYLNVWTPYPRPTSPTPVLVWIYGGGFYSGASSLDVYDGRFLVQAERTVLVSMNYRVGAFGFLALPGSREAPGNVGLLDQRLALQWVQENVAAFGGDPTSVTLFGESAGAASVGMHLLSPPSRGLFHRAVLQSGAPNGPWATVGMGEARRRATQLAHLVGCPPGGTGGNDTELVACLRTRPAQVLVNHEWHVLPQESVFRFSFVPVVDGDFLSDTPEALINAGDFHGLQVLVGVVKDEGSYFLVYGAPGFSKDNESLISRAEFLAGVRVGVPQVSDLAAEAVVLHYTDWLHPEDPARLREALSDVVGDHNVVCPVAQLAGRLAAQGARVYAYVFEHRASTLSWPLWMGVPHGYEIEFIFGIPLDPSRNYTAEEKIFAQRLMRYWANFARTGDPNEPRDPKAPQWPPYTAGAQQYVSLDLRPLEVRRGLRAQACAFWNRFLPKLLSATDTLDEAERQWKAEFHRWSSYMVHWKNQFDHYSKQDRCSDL

rSmTAChE [3] = biological target: T1, rSmTAChE; test: biochemical

Compound | rSmTAChE Data Mode (rSmTAChE [1]) | rHsAChE Data Mode [2] | Inhibition (%) (Average) (rSmTAChE [3]) | Inhibition (%) Replicate A (rSmTAChE [3]) | Inhibition (%) Replicate B (rSmTAChE [3]) | Data Mode (curve class), rSmTAChE (rSmTAChE [1]) | IC50 (rSmTAChE [1]) | Data Mode (curve class), rHsAChE [2] | IC50 ([2]; read-out: qAC50 (IC50), rHsAChE)
CC(C)C#Cc1ccc([C@@H]2[C@@H](CO)N3C(=O)CN(S(=O)(=O)c4ccccc4)C[C@@H]23)cc1 [BRD-K69261014-001-01-3] | inactive | increasing (weakly active) | 63.59% | 66.79% | 60.39% |  |  |  | 
COC(=O)[C@]12CCC(C)(C)C[C@@H]1[C@@H]1C(=O)C=C3[C@]4(C)C=C(C#N)C(=O)C(C)(C)[C@@H]4CC[C@@]3(C)[C@]1(C)CC2 [BRD-K69694239-001-02-2] |  |  | 75.78% | 75.16% | 76.41% | decreasing | 34.7 µM | decreasing (weakly active) | > 38 µM
NC(=O)N/N=C/c1ccc(Oc2ccc(F)cc2)cc1 [BRD-K70912147-001-01-8] |  |  | 75.84% | 80.22% | 71.46% | inactive |  | inactive | 
O=C(C[C@@H]1C[C@@H]2c3cc(NC(=O)NC4CCCC4)ccc3O[C@@H]2[C@@H](CO)O1)NCc1ccccc1F [BRD-K71334452-001-01-3] | inactive | inactive | 89.18% | 90.25% | 88.11% |  |  |  | 
COc1ccc(C#Cc2ccc3c(c2)O[C@H](CN(C)S(=O)(=O)c2ccccc2F)[C@H](C)CN([C@@H](C)CO)S3(=O)=O)cc1 [BRD-K71357636-001-01-3] | inactive | inactive | 64.93% | 63.67% | 66.19% |  |  |  | 
C[C@H](CO)N1C[C@H](C)[C@@H](CN(C)C(=O)Nc2cc(F)ccc2F)Oc2cc(-c3cccc(C#N)c3)ccc2S1(=O)=O [BRD-K72311435-001-01-2] | inactive | decreasing (weakly active) | 61.10% | 61.21% | 60.99% |  |  |  | 
C/C=C/c1cccc(-c2nc(C(=O)NCc3ccc(OC)cc3)cc3c2[C@@H](CCO)N([S@+]([O-])C(C)(C)C)C3)c1 [BRD-K73104592-001-03-5] | inactive | inactive | 64.19% | 65.92% | 62.45% |  |  |  | 
C[C@H](CO)N1C[C@H](C)[C@H](CN(C)S(=O)(=O)c2ccc(F)cc2)Oc2c(NC(=O)Nc3cccc4ccccc34)cccc2C1=O [BRD-K73245004-001-02-0] | decreasing (weakly active) | inactive | 68.21% | 69.56% | 66.86% |  |  |  | 
Cc1cc(C#N)cc(C)c1Oc1nc(Nc2ccc(C#N)cc2)nc(N)c1Br [BRD-K74717603-001-02-2] |  |  | 74.49% | 77.10% | 71.88% | decreasing (weakly active) | > 38 µM | inactive | 
O=C(C[C@@H]1C[C@@H]2c3cc(NC(=O)Nc4ccccc4)ccc3O[C@@H]2[C@@H](CO)O1)NC1CCCC1 [BRD-K74918080-001-01-0] | decreasing (weakly active) | inactive | 91.31% | 92.86% | 89.77% |  |  |  | 
COc1ccc(NC(=O)Nc2ccc3c(c2)[C@@H]2C[C@H](CC(=O)NCc4ccc5c(c4)OCO5)O[C@H](CO)[C@@H]2O3)cc1 [BRD-K77518191-001-01-1] | decreasing (weakly active) | inactive | 88.00% | 87.37% | 88.63% |  |  |  | 
CCCC#Cc1ccc([C@H]2[C@@H](CO)N3C(=O)CN(S(=O)(=O)c4ccccc4C)C[C@@H]23)cc1 [BRD-K77990919-001-01-3] | inactive | inactive | 79.61% | 76.02% | 83.20% |  |  |  | 
O=c1sn(-c2cccc3ccccc23)c(=O)n1Cc1ccccc1 [BRD-K81330143-001-04-8] |  |  | 88.72% | 89.17% | 88.27% | inactive |  | inactive | 
